{
  "source": "patent US20040228830A1",
  "about": "(Collegium Pharmaceutical, Inc., priority 2003, published 2004)",
  "origin": "cited, not measured here",
  "key": {"[1]": {"details": "75-100 mg/day twice daily for 8 weeks, elderly patients with depression"}, "[2]": {"details": "intravenous, 10 patients"}, "[3]": {"target": "uptake of dopamine (Homo sapiens, UniProt Q01959)", "sequence (Q01959 whole entry)": "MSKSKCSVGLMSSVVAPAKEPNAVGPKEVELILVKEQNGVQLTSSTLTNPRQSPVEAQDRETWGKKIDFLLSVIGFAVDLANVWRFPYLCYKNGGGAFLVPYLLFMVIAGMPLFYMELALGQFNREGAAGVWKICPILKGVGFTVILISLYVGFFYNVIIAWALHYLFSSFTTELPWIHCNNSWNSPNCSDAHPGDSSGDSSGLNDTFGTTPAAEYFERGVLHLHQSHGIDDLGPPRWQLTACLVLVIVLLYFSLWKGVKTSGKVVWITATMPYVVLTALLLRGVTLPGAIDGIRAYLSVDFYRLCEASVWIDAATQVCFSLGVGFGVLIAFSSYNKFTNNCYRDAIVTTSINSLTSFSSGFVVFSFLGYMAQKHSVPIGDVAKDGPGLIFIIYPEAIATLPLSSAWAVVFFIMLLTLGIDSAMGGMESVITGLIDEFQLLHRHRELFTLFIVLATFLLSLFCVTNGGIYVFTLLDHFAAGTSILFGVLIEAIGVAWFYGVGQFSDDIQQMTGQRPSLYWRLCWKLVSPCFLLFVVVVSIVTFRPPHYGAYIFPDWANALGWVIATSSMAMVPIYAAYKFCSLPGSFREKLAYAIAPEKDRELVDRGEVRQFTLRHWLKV"}, "[4]": {"tested_on": "beta adrenoceptors in rat cortex", "details": "after chronic administration"}, "[5]": {"details": "metabolism in the liver"}, "[6]": {"details": "200 mg/day"}, "[7]": {"details": "after one week of dose escalation"}, "[8]": {"details": "human, in vivo"}},
  "data": [
    {"molecule": "CCN(CC)C(=O)C1(c2ccccc2)CC1CN", "note": "(stereo not shown) [milnacipran, Milnacipran]", "values": [
      {"measurement": "only adverse event reported more frequently for milnacipran recipients than for imipramine recipients", "setting": "[1]", "result": "nausea"},
      {"measurement": "patients reporting transient nausea", "setting": "[2]", "result": "five"},
      {"measurement": "effect on the uptake of dopamine", "setting": "[3]", "result": "does not affect"},
      {"measurement": "effect on the number of beta adrenoceptors in rat cortex", "setting": "[4]", "result": "does not affect"},
      {"measurement": "number of chemically identified metabolites", "setting": "[5]", "result": "ten"},
      {"measurement": "antidepressant efficacy versus lower doses", "setting": "[6]", "result": "superior to the lower doses"},
      {"measurement": "most common dose-related side effect reported by patients", "setting": "four weeks dose escalation", "result": "nausea"},
      {"measurement": "pain improvement", "setting": "twice-a-day administration of immediate release formulation, fibromyalgia", "result": "statistically superior to that of placebo treatment"},
      {"measurement": "most commonly reported reason for discontinuation of treatment because of adverse effects", "setting": "[7]", "result": "nausea and vomiting"},
      {"measurement": "toxicity in humans", "setting": "[8]", "result": "non-toxic"}
    ]}
  ]
}
